In publication PMC11433535 (Life, 2024):
≈ marks a conversion by molar mass, not a printed value.

Experiments:
[1] = system: Ictalurid herpesvirus 2 (IcHV-2); assay: qPCR of viral DNA load in infected EPC cells, IcHV-2; type: cell-based; conditions: 800 µM acyclovir, MOI 0.05, 48 h, normalized to beta-actin
Procedure: (§1) The EPC cells were also seeded in 24-well plates (2 × 10^5 cells/well) and incubated overnight at 25 °C. […] The plates were incubated for 48 h at 25 °C. Afterwards, the plates were frozen at −20 °C, followed by nucleic acid extraction and qPCR analysis.
(§2) Extraction of viral DNA was carried out with the Viral Nucleic Acid Extraction Kit II (Geneaid, New Taipei City, China) according to the manufacturer’s instructions. The extracted DNA was stored at −20 °C. Quantitative PCRs (qPCRs) were used to determine the relative amount of viral DNA in the treated and control groups. The qPCRs were performed in a Bio-Rad® Real-Time PCR System instrument (Bio-Rad, Hercules, CA, USA) using the SensiFast^TM SYBR Hi-ROX Kit (Bioline, London, UK). The PCR mixture contained 10 µL of 2xSensifast SYBR mix, 0.8 µL of forward and reverse primers, 6.4 µL pf distilled water, and 2 µL of the target DNA. The final 20 µL mixture was used in a program that included an initial denaturing step at 95 °C for 3 min, followed by 40 cycles of 95 °C for 5 s and either 65 °C or 72 °C for 30 s. All the qPCRs were performed in duplicate, and the beta-actin gene of the EPC cells was used as an internal standard. The resulting qPCR data were analyzed by the Bio-Rad CFX Maestro Software. During the experiment, ranavirus major capsid protein forward and reverse primers were used for both the ECV and FV3 viruses. […]

[2] = system: Ictalurid herpesvirus 2 (IcHV-2); assay: Endpoint virus titration (TCID50/mL) in EPC cells, IcHV-2; type: cell-based; conditions: 800 µM acyclovir, 10 days, vs control
Procedure: (§3) Epithelioma Papulosum Cyprini (EPC; ATCC CRL-2872) cells were grown and handled as described in detail previously. IcHV-2 originates from Italy, while the ECV strain (14612/2012) was isolated from the brown bullhead in Hungary. The Frog Virus 3 strain Granoff (FV3, ATCC VR-567) was originally isolated from a leopard frog (Lithobates pipiens) in the USA in 1965 [38] and was propagated on various fish and reptilian cell lines before it was added to our collection by courtesy of Rachel Marschang (University of Hohenheim, Stuttgart, Germany). All three viruses were cultivated in the EPC cell line at 25 °C. The tissue culture infectious dose (TCID50/mL) was calculated by the Reed and Muench method.
(§4) The EPC cells were seeded into 96-well plates (2 × 10^4 cells/well) and incubated overnight at 25 °C. […] The titers were read after 10 days of incubation at 25 °C.

IcHV-1 = conditions: 10 µM acyclovir, BB cells; cited from earlier work
Frog virus 3 (FV3) [3] = assay: Endpoint virus titration (TCID50/mL) in EPC cells, FV3; type: cell-based; conditions: 800 µM acyclovir, 10 days, vs control
Procedure: as §3, §4

Frog virus 3 (FV3) [4] = assay: qPCR of viral DNA load in infected EPC cells, FV3; type: cell-based; conditions: 800 µM acyclovir, MOI 0.05, 48 h, normalized to beta-actin
Procedure: as §1, §2

in vitro = type: cell-based; conditions: fathead minnow (Pimephales promelas)
Procedure: In brief, 96-well plates were seeded with the EPC cells at a density of 2 × 10^4 cells/well and incubated for 24 h at 25 °C. The growth medium was then replaced with acyclovir-containing medium at concentrations of 3200 µM, 1600 µM, 800 µM, 400 µM, 200 µM, 100 µM, and 50 µM.

[5] = system: European catfish virus (ECV); assay: qPCR of viral DNA load in infected EPC cells, ECV; type: cell-based; conditions: 800 µM acyclovir, MOI 0.05, 48 h, normalized to beta-actin
Procedure: as §1, §2

[6] = system: European catfish virus (ECV); assay: Endpoint virus titration (TCID50/mL) in EPC cells, ECV; type: cell-based; conditions: 800 µM acyclovir, 10 days, vs control
Procedure: as §3, §4

CyHV-3 = conditions: 222.02 and 444.04 µM acyclovir; cited from earlier work
[7] = Solubility of acyclovir in the cell culture medium; type: physicochemical; conditions: fully supplemented EMEM cell culture medium, crystallization observed at 3200 µM
Procedure: The following concentrations were prepared for the experiments: 3200 µM, 1600 µM, 800 µM, 400 µM, 200 µM, 100 µM, and 50 µM.

For Nc1nc2c(ncn2COCCO)c(=O)[nH]1 [acyclovir], the “Reduction of viral DNA load (qPCR)” value [1] is given as 10^4 fold, the “Decrease of viral load (TCID50/mL titer)” value [2] is given as 30 fold and the “Reduction of plaque number” value (IcHV-1) is given as 99%. For the same molecule, the “Decrease of viral load (TCID50/mL titer)” value (Frog virus 3 (FV3) [3]) was 11 fold, the “Reduction of viral DNA load (qPCR)” value (Frog virus 3 (FV3) [4]) was 10^3 fold and the viability at 3 days, 50 µM (in vitro) was 113 ± 1.92%. For the same molecule, the viability at 3 days, 100 µM (in vitro) was 105 ± 1.48%, the viability at 3 days, 200 µM (in vitro) was 111 ± 2.27% and the viability at 3 days, 400 µM (in vitro) was 110 ± 3.45%. It also gave a viability at 3 days, 800 µM (in vitro) of 103 ± 1.41%, a viability at 3 days, 1600 µM (in vitro) of 94.3 ± 1.47% and a viability at 3 days, 3200 µM (in vitro) of 103 ± 1.58%. The “Reduction of viral DNA load (qPCR)” value [5] was 10^5 fold, the “Decrease of viral load (TCID50/mL titer)” value [6] was 2500 fold and the “Reduction (CyHV-3)” value (CyHV-3) was 98%. It also gave a solubility [7] of 3.2 mM (≈ 721 µg/mL).
